How the values were obtained:
NURR-1/RXRγ = target: T1, NURR-1/RXRγ (Homo sapiens, UniProt P48443); assay: Transactivation test, NURR-1-Gal4/RXRγ, luciferase reporter in Cos-7 cells; type: cell-based; conditions: for Emax: COS-7, induction level relative to reference XCT0135908 at 2×10^−5 M (=100%), read-out: hNurr1_RXRgFL Emax (%); for EC50: Cos-7 cells, NURR-1-Gal4/RXRγ, luciferase reporter, read-out: hNurr1_RXRgFL EC50; for hNurr1_RXRgFL Emax (%): induction level relative to reference XCT0135908 at 2×10^−5 M (=100%)
T1 construct: expressed in transfected cells; host or cells: Cos-7 cells
T1 sequence (P48443 whole entry, the tested form may be a part): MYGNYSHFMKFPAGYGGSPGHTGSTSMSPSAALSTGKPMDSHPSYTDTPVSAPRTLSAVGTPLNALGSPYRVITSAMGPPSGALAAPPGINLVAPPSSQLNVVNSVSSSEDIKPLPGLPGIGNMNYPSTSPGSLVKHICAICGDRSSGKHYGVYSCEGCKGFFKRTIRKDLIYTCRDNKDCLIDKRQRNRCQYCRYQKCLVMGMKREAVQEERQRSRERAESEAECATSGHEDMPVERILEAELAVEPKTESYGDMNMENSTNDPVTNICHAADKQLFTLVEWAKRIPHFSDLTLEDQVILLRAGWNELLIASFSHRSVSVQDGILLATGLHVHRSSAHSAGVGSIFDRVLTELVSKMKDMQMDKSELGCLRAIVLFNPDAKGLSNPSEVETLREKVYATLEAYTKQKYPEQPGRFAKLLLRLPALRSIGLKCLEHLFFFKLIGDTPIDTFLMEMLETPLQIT
T1 sequence (P43354 whole entry partner, the tested form may be a part): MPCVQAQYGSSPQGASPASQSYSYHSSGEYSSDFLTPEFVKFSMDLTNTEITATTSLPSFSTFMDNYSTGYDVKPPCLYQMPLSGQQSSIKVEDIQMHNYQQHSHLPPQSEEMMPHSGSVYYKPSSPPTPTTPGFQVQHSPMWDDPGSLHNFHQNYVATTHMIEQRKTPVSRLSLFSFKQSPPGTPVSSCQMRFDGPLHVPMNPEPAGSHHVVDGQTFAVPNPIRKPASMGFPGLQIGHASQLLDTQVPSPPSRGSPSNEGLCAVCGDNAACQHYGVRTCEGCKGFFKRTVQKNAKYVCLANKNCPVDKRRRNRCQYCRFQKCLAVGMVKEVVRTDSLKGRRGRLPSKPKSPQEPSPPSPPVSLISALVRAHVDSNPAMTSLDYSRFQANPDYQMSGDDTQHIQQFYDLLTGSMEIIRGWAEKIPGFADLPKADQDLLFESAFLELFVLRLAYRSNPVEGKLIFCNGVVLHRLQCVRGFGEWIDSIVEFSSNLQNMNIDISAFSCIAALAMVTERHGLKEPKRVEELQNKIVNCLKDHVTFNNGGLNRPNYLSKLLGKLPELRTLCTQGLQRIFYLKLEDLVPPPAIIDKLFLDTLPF
T1 sequence (P04386 1-147 partner limits assumed): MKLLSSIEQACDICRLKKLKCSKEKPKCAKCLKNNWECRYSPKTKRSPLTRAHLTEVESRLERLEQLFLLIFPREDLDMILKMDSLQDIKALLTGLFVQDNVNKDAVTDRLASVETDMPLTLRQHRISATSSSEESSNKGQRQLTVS

NURR-1/RXRα = target: T2, NURR-1/RXRα (Homo sapiens, UniProt P19793); assay: Transactivation test, NURR-1-Gal4/RXRα, luciferase reporter in Cos-7 cells; type: cell-based; conditions: for Emax: COS-7, induction level relative to reference XCT0135908 at 2×10^−5 M (=100%), read-out: hNurr1_RXRaFL Emax (%); for EC50: Cos-7 cells, NURR-1-Gal4/RXRα, luciferase reporter, read-out: hNurr1_RXRaFL EC50; for hNurr1_RXRaFL Emax (%): induction level relative to reference XCT0135908 at 2×10^−5 M (=100%)
T2 construct: expressed in transfected cells; host or cells: Cos-7 cells
T2 sequence (P19793 whole entry, the tested form may be a part): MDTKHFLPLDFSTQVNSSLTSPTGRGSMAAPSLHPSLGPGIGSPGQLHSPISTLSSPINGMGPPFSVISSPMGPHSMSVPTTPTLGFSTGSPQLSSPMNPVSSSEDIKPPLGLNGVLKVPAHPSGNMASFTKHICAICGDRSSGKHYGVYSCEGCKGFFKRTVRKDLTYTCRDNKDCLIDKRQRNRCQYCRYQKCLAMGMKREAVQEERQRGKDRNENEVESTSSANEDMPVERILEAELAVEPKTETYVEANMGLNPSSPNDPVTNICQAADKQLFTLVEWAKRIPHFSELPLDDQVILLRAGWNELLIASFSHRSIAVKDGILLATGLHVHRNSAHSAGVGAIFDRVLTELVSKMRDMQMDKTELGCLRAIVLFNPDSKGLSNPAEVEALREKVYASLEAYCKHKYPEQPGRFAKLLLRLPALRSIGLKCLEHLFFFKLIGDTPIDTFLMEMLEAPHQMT
T2 sequence (P43354 whole entry partner, the tested form may be a part): as the sequence (P43354 whole entry partner, the tested form may be a part) above
T2 sequence (P04386 1-147 partner limits assumed): as the sequence (P04386 1-147 partner limits assumed) above

| Emax (NURR-1/RXRγ) | EC50 (NURR-1/RXRγ) | Emax (NURR-1/RXRα) | EC50 (NURR-1/RXRα) | melting point | hNurr1_RXRgFL Emax (%) (NURR-1/RXRγ) | hNurr1_RXRaFL Emax (%) (NURR-1/RXRα) | SMILES |
| --- | --- | --- | --- | --- | --- | --- | --- |
| 101% | 211 nM | 107% | 118 nM | 61 °C | – | – | CC1COc2cc(C(F)(F)F)ccc2N1c1cccc(N2CC(C(=O)O)C2)c1 (single isomer, unassigned; isomer 1) [Example 124-1, 1-[3-[3-methyl-7-(trifluoromethyl)-2,3-dihydro-1,4-benzoxazin-4-yl]phenyl]azetidine-3-carboxylic acid, isomer 1] |
| 90% | 103 nM | 82% | 37 nM | 84 to 91 °C | – | – | CC1(C)CCC2C(C1)c1cc(C(F)(F)F)ccc1N2c1cccc(N2CC(C(=O)O)C2)c1 (single isomer, unassigned; isomer 1) [Example 145-1, 1-[3-[3,3-dimethyl-6-(trifluoromethyl)-2,4,4a,9a-tetrahydro-1H-carbazol-9-yl]phenyl]azetidine-3-carboxylic acid (isomer 1)] |
| – | < 1 nM | – | 2 nM | 82 to 94 °C | 99% | 86% | CC1(C)CCC2C(C1)c1cc(C(F)(F)F)ccc1N2c1cccc(N2CC(C(=O)O)C2)c1 (single isomer, unassigned; isomer 2) [Example 145-2, 1-[3-[3,3-dimethyl-6-(trifluoromethyl)-2,4,4a,9a-teterahydro-1H-carbazol-9-yl]phenyl]azetidine-3-carboxylic acid (isomer 2)] |
| 115% | 1 nM | 111% | 2 nM | 93 to 98 °C | – | – | Cc1cc(N2CC(C(=O)O)C2)cc(N2CC(C)(C)Oc3cc(C(F)(F)F)ccc32)c1 [Example 116, 1-[3-[2,2-dimethyl-7-(trifluoromethyl)-3H-1,4-benzoxazin-4-yl]-5-methylphenyl]azetidine-3-carboxylic acid] |
| 94% | 512 nM | 101% | 238 nM | 59 to 64 °C | – | – | CC1(C)CN(c2cccc(N3CC(C(=O)O)C3)c2)c2ccccc2O1 [Example 119, 1-[3-(2,2-dimethyl-3H-1,4-benzoxazin-4-yl)phenyl]azetidine-3-carboxylic acid] |
| 139% | 29 nM | 137% | 19 nM | 62 to 70 °C | – | – | CC1COc2cc(C(F)(F)F)ccc2N1c1cccc(N2CC(C(=O)O)C2)c1 (stereo not drawn) [Example 124, 1-[3-[3-methyl-7-(trifluoromethyl)-2,3-dihydro-1,4-benzoxazin-4-yl]phenyl]azetidine-3-carboxyltc add] |
| 116% | 3 nM | 128% | 1 nM | 58 to 64 °C | – | – | O=C(O)C1CN(c2cccc(-n3cc(CC4CCC4)c4cc(C(F)(F)F)ccc43)c2)C1 [Example 126, 1-[3-[3-(cyclobutylmethyl)-5-(trifluromethyl)indol-1-yl]phenyl]azetidine-3-carboxylc acid] |
| – | – | 88% | 75 nM | 169 to 176 °C | – | – | CC1(C)CCNc2c(cc(C(C)(C)C)cc2-c2cccc(N3CC(C(=O)[O-])C3)c2)O1.[Na+] [Example 210, sodium 1-[3-(8-tert-butyl-2,2-dimethyl-4,5-dihydro-3H-1,5-benzoxazepin-6-yl)phenyl]azetidine-3-carboxylate] |
| – | – | 107% | ~1 nM | 177 to 191 °C | – | – | O=C([O-])C1CN(c2cccc(C3=CC4(CCC4)Oc4cc(C(F)(F)F)ccc43)c2)C1.[Na+] [Example 268, sodium 1-[3-[7-(trifluoromethyl)spiro[chromene-2,1′-cyclobutane]-4-yl]phenyl]azetidine-3-carboxylate] |
| – | – | 114% | 26 nM | 141 to 146 °C | – | – | CC1(C)N=C(c2cccc(N3CC(C(=O)[O-])C3)c2)c2ccc(C(F)(F)F)cc2O1.[Na+] [Example 271, sodium 1-[3-[2,2-dimethyl-7-(trifluoromethyl)-1,3-benzoxazin-4-yl]phenyl]azetidine-3-carboxylate] |

The remaining lines, values behind:

| SMILES | Emax (NURR-1/RXRγ) | EC50 (NURR-1/RXRγ) | Emax (NURR-1/RXRα) | EC50 (NURR-1/RXRα) | melting point | hNurr1_RXRgFL Emax (%) (NURR-1/RXRγ) | hNurr1_RXRaFL Emax (%) (NURR-1/RXRα) |
| --- | --- | --- | --- | --- | --- | --- | --- |
| CC(C)CC1Oc2cc(C(F)(F)F)ccc2N(c2cccc(N3CC(C(=O)O)C3)c2)C1=O (single isomer, unassigned; isomer 2) [Example 246-2, 1-[3-[2-isobutyl-3-oxo-7-(trofluormethyl)-1,4-benzoxazin-4-yl]phenyl]azetidine-3-carboxylic acid, isomer 2] | – | 126 nM | – | 73 nM | 57 to 70 °C | 46% | 58% |
| O=C(O)C1CN(c2cccc(-c3cc(C(F)(F)F)cc4c3NCC3(CCC3)O4)c2)C1 [Example 62, 1-[3-[7-(trifluoromethyl)spiro[3,4-dihydro-1,4-benzoxazine-2,1′-cyclobutane]-5-yl]phenyl]azetidine-3-carboxylic acid] | 107% | 7 nM | 97% | 4 nM | 80 to 85 °C | – | – |
| CCC1CNc2c(cc(C(F)(F)F)cc2-c2cccc(N3CC(C(=O)O)C3)c2)O1 (stereo not drawn) [Example 66, 1-[3-[2-ethyl-7-(trifluoromethyl)-3,4-dihydro-2H-1,4-benzoxazin-5-yl]phenyl]azetidine-3-carboxylic acid] | 95% | 25 nM | 98% | 8 nM | 115 to 121 °C | – | – |
| Cc1ccc(N2CC(C(=O)O)C2)cc1-c1cccc(C(C)C)c1 [Example 69, 1-[3-(3-isopripylphenyl)-4-methylphenyl]azetidine-3-carboxylic acid] | 57% | 142 nM | 63% | 146 nM | 71 to 76 °C | – | – |
| CC(C)c1cc2c(c(-c3cccc(N4CC(C(=O)O)C4)c3)c1)C(=O)CC(C)(C)O2 [Example 71, 1-[3-(7-isopropyl-2,2-dimethyl-4-oxochroman-5-yl)phenyl]azetidine-3-carboxylic acid] | 101% | 435 nM | 96% | 326 nM | 70 to 88 °C | – | – |
| CCc1noc2cc(C(C)C)cc(-c3cccc(N4CC(C(=O)O)C4)c3)c12 [Example 72, 1-[3-(3-ethyl-6-isopropy;-1,2-benzoxazol-4-yl)phenyl]azetidine-3-carboxylic acid] | 112% | 40 nM | 97% | 7 nM | 63 to 69 °C | – | – |
| O=C(O)C1CN(c2cccc(-c3cc(C(F)(F)F)nc4cc(Cl)ccc34)c2)C1 [Example 82, 1-[3-[7-chloro-2-(trifluoromethyl)-4-quinolyl]phenyl]azetidine-3-carboxylic acid] | 99% | 72 nM | 110% | 31 nM | 98 to 101 °C | – | – |
| Cc1cc2c(cc1-c1cccc(N3CC(C(=O)O)C3)c1)C(C)(C)CCC2(C)C [Example 85, 1-[3-(1,1,4,4,7-pentamethyltetralin-6-yl)phenyl]azetidine-3-carboxylic acid] | 116% | 49 nM | 112% | 19 nM | 130 to 141 °C | – | – |
| CCc1cc2c(cc1-c1cccc(N3CC(C(=O)O)C3)c1)C(C)(C)CCC2(C)C [Example 86, 1-[3-(7-ethyl-1,1,4,4,-tetramethyltetralin-6-yl)phenyl]azetidine-3-carboxylic acid] | 97% | 16 nM | 107% | 6 nM | 78 to 88 °C | – | – |
| CC1(C)Oc2cc(C(F)(F)F)ccc2N(c2cccc(N3CC(C(=O)O)C3)c2)C1=O [Example 120, 1-[3-[2,2-dimethyl-3-oxo-7-(trifluoremethyl)-1,4-benzoxazin-4-yl]phenyl]azetidine-3-carboxylic acid] | 112% | 34 nM | 108% | 20 nM | 80 to 86 °C | – | – |
| CCC1Oc2cc(C(F)(F)F)ccc2N(c2cccc(N3CC(C(=O)O)C3)c2)C1=O (stereo not drawn) [Example 123, 1-[3-[2-ethyl-3-oxo-7-(trifluromethyl)-1,4-benzoxazin-4-yl]phenyl]azetidine-3-carboxylic acid] | 77% | 37 nM | 90% | 121 nM | 148 to 152 °C | – | – |
| Cc1cc2c(c(-c3cccc(N4CC(C(=O)[O-])C4)c3)c1)NCCC(C)(C)O2.[Na+] [Example 209, sodium 1-[3-(2,2,8-trimethyl4,5-dihydro-3H-1,5-benzoxazepin-6-yl)phenyl]azetidine-3-carboxylate] | – | – | 95% | 212 nM | 145 to 154 °C | – | – |
| CN1CC(C)(C)Oc2cc(C(C)(C)C)cc(-c3cccc(N4CC(C(=O)[O-])C4)c3)c21.[Na+] [Example 211, sodium 1-[3-(7-tert-butyl-2,2,4-trimethyl-3H-1,4-benzoxazin-5-yl)phenyl]azetidine-3-carbxoylate] | – | – | 94% | 0.91 nM | 245 to 246 °C | – | – |
| CC1(C)C=C(c2cccc(N3CC(C(=O)[O-])C3)c2)c2ccc(C(C)(C)C)cc2O1.[Na+] [Example 267, sodium 1-[3-(7-tert-butyl-2,2-dimethylchromen-4-yl)phenyl]azetidine-3-carboxylate] | – | – | 115% | 13 nM | 212 to 233 °C | – | – |

— patent US20170066717A1, “NEW PHENYLAZETIDINECARBOXYLATE OR -CARBOXAMIDE COMPOUNDS” (INVENTIVA, priority 2014, published 2017)
